Data from ChEMBL document CHEMBL1201862, “PubChem BioAssay data set” (2004).
Values belong to the compound of their own block, whether it stands above or below them. Calls of active or inactive are those of the source.

What was measured:
[1] = molecular target: T1, Tyrosine-protein phosphatase non-receptor type 7 (Homo sapiens, UniProt P35236); assay: inhibition of hematopoietic tyrosine phosphatase HePTP – biochemical, set 2, SAR follow-up (AID 449736); assay type: functional
T1 sequence (P35236 whole entry): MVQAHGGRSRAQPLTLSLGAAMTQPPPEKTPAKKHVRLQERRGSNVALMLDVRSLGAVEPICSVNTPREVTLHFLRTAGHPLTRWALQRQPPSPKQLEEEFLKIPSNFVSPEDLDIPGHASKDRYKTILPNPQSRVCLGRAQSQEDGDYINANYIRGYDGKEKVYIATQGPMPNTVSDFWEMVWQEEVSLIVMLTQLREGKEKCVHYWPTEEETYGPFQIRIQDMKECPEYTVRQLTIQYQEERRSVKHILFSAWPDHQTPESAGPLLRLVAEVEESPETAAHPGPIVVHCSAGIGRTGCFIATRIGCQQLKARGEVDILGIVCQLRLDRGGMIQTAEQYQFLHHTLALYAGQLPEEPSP

[2] = molecular target: Sphingosine 1-phosphate receptor 1 (Homo sapiens, UniProt P21453); assay: Fluorescence-based counterscreen assay for S1P4 agonists: Cell-based dose response high throughput screening assay to identify agonists of the Sphingosine 1-Phosphate Receptor 1 (S1P1). [Related pubchem assays (depositor defined):AID1509, AID1523, AID1801, AID463107, AID463118, AID463119, AID463122, AID463123, AID463129, AID463225, AID504400, AID504460]; assay type: functional
[3] = molecular target: T2, Sphingosine 1-phosphate receptor 4 (Homo sapiens, UniProt O95977); assay: Fluorescence dose response cell-based high throughput screening assay for agonists of the Sphingosine 1-Phosphate Receptor 4 (S1P4). [Related pubchem assays: 1509 (Primary screen.), 1523 (Confirmation screen in triplicates.)]; assay type: functional
T2 sequence (O95977 whole entry): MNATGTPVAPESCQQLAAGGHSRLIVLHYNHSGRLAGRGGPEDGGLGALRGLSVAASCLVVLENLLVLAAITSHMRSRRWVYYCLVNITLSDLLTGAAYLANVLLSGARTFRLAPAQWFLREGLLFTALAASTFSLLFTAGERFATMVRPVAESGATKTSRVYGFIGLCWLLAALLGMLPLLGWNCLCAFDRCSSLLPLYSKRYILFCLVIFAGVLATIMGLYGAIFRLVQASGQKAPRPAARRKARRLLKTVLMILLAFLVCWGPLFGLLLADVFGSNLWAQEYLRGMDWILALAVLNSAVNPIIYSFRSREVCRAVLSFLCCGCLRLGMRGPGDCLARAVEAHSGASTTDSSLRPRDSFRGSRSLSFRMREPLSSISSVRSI

[4] = molecular target: T3, Kappa-type opioid receptor (Homo sapiens, UniProt P41145); assay: kappa opioid receptor activation potency – imaging, image-based, SAR follow-up (AID 2359); assay type: functional
[5] = molecular target: T4, Delta-type opioid receptor (Homo sapiens, UniProt P41143); assay: DOR agonists, SAR follow-up, image-based (AID 2370); assay type: functional
Mu-type opioid receptor [6] = molecular target: T5, Mu-type opioid receptor (Homo sapiens, UniProt P35372); assay: mu opioid receptor blockers – image-based, SAR follow-up (AID 2420); assay type: functional;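 note: compounds added before stimulation of receptor with agonist DAMGO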
[7] = molecular target: T4, Delta-type opioid receptor; assay: delta opioid receptor blockers – image-based, SAR follow-up (AID 2357); assay type: functional
Mu-type opioid receptor [8] = molecular target: T5, Mu-type opioid receptor; assay: mu opioid receptor activators, image-based, SAR follow-up (AID 2352); assay type: functional
[9] = molecular target: T3, Kappa-type opioid receptor; assay: kappa opioid receptor blockers, image-based, SAR follow-up (AID 2348); assay type: functional
[10] = molecular target: T3, Kappa-type opioid receptor; assay: SAR analysis of small molecule agonists of the kappa opioid receptor via a luminescent beta-arrestin assay. [Related pubchem assays (depositor defined):AID1777, AID1786, AID1966, AID2133, AID2136, AID2348, AID2352, AID2357, AID2359, AID2370, AID2420, AID2478, AID2491, AID2492, AID2493, AID2497, AID2498, AID2500, AID449737, AID488822, AID488842]; assay type: functional
[11] = molecular target: T6, Alkaline phosphatase, tissue-nonspecific isozyme (Homo sapiens, UniProt P05186); assay: activation of tissue-nonspecific alkaline phosphatase – biochemical, TNAP isozyme, human IAP uHTS hits, selectivity assay for human IAP activator project, dose response (AID 488886); assay type: functional;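 note: potency of compounds raising TNAP activity as a selectivity check on IAP activators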
T6 sequence (P05186 whole entry): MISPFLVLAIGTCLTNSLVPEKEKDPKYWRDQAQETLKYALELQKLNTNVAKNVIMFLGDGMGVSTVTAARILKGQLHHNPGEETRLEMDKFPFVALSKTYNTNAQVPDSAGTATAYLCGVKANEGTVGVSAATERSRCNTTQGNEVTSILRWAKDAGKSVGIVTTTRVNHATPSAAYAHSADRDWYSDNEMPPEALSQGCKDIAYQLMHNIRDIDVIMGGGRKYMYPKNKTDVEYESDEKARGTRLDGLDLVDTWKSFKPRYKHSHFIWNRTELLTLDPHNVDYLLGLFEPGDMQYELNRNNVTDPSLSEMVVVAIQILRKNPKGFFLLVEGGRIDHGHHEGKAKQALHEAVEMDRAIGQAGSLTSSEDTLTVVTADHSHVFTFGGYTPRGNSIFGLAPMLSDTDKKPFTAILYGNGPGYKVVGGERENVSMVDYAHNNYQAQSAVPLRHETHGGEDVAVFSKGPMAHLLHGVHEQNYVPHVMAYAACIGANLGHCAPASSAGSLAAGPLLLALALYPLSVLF

[12] = molecular target: T7, Intestinal-type alkaline phosphatase (Homo sapiens, UniProt P09923); assay: human intestinal alkaline phosphatase activators, dose response, biochemical, luminescence, uHTS hits (AID 463120); assay type: functional
[13] = molecular target: T7, Intestinal-type alkaline phosphatase; assay: activation of human intestinal alkaline phosphatase – biochemical, luminescent, uHTS hits, set 2, dose response (AID 488817); assay type: functional;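 note: potency of activators that raise enzyme activity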
[14] = molecular target: T8, RNA-binding protein pos-1 (Caenorhabditis elegans, UniProt G5EF15); assay: disruptors of C. elegans POS-1 RNA interaction – biochemical, fluorescence polarization, dose response (AID 1964);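 note: purified POS-1 fused to maltose binding protein made in E. coli; potency of compounds blocking POS-1 binding to fluorescent RNA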
T8 sequence (G5EF15 whole entry): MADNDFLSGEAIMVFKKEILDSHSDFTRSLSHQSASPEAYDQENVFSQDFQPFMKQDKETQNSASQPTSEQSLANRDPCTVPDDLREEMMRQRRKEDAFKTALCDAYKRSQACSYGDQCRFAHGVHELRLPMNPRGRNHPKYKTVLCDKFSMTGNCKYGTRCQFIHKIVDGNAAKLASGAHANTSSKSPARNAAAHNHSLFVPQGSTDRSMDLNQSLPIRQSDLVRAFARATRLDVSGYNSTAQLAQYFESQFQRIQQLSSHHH

[15] = molecular target: Intestinal-type alkaline phosphatase (Mus musculus, UniProt P24822); assay: PubChem AID 488874; assay type: functional
[16] = molecular target: T9, Runt-related transcription factor 1/Core-binding factor subunit beta (Homo sapiens, UniProt Q01196+Q13951); assay: Runt domain/CBFb-SMMHC interaction disruptors – biochemical, TR-FRET (AID 1438); assay type: protein assay
[17] = molecular target: T9, Runt-related transcription factor 1/Core-binding factor subunit beta; assay: disruptors of Runt domain/CBFb-SMMHC interaction – biochemical, FRET, Cerulean-Runt, Venus-CBFb-SMMHC, uHTS, […] (AID 1434); assay type: protein assay
Phosphomannomutase 2 = Phosphomannomutase 2 (Homo sapiens, UniProt O15305); assay: Counter screen SAR assay for PMM2 inhibitors via a fluorescence intensity assay. [Related pubchem assays (depositor defined):AID1545, AID1574]
[18] = molecular target: T10, Mannose-6-phosphate isomerase (Homo sapiens, UniProt P34949); assay: phosphomannose isomerase inhibition – biochemical, fluorescence intensity, confirmation (AID 1535)
T10 sequence (P34949 whole entry): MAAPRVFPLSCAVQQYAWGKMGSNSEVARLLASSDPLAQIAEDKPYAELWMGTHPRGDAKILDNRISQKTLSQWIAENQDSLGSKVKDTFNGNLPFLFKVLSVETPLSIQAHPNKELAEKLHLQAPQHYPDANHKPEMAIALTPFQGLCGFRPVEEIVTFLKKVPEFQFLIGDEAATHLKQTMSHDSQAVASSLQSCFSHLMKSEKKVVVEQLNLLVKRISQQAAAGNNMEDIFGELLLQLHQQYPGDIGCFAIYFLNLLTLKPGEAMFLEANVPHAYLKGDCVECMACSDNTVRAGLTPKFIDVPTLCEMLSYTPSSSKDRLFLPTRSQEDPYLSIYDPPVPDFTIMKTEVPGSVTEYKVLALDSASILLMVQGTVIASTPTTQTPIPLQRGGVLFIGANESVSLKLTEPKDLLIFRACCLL

[19] = molecular target: T11, E3 ubiquitin-protein ligase XIAP (Homo sapiens, UniProt P98170); assay: Counter Screen using XIAP-Bir3 for Chemical Antagonists of Bir1/2 domains of IAP-family anti-apoptotic proteins. [Related pubchem assays (depositor defined):AID1018, AID1449, AID1514, AID1638, AID1749, AID1750, AID488957, AID488963]
[20] = HPDE-C7 pancreatic duct cell viability loss – fluorescence, HTS (AID 430); assay type: functional, cell-based; details: Homo sapiens
[21] = viability loss of HPDE-C7K cells – cell-based, fluorescence, HTS, primary screen (AID 431); assay type: functional; details: Homo sapiens
[22] = molecular target: T12, Calpain-2 catalytic subunit (Sus scrofa, UniProt P43367); assay: m-calpain protease blockers, concentration series – biochemical, fluorogenic peptide substrate, dose response (AID 1420); assay type: functional
T12 sequence (P43367 whole entry): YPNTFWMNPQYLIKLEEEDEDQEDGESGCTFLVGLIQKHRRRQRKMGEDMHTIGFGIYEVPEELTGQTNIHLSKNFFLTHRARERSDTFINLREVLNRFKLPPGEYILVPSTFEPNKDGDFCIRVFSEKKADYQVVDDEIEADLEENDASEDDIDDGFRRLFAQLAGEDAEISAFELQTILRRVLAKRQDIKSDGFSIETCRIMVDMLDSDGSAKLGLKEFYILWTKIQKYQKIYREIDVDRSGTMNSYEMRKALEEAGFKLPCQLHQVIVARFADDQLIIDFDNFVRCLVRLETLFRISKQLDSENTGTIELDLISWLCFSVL

[23] = molecular target: T11, E3 ubiquitin-protein ligase XIAP; assay: small molecules displacing peptide from XIAP – biochemical, IAP family, fluorescence polarization (AID 1018); assay type: functional
[24] = molecular target: T13, Corticotropin-releasing factor receptor 2/Corticotropin-releasing factor-binding protein (Homo sapiens, UniProt P24387+Q13324); assay: activators of CRF receptor 2 with binding protein – uHTS hits, confirmation (AID 602473); assay type: functional; details: read-out: EC50_Mean
T13 sequence (Q13324 whole entry): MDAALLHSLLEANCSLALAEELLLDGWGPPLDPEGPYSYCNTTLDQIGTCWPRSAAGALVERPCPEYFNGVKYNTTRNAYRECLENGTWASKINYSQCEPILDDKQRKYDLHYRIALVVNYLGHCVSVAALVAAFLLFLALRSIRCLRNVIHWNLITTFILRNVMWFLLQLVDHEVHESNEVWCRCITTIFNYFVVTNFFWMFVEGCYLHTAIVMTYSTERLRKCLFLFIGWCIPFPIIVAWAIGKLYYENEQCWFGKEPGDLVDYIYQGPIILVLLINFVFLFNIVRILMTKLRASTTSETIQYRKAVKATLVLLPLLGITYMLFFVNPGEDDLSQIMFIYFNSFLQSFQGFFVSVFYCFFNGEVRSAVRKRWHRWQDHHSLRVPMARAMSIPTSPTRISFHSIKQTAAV
T13 sequence (P24387 whole entry): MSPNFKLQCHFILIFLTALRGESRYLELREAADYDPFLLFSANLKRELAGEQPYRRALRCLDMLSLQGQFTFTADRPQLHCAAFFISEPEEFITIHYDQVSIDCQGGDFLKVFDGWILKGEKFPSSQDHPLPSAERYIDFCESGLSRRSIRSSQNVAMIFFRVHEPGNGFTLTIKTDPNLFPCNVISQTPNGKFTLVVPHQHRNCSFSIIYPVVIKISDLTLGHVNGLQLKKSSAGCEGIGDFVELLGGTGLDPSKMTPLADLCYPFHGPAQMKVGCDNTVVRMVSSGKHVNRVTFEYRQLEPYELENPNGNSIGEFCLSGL

Troponin, cardiac muscle = Troponin, cardiac muscle (Homo sapiens, UniProt P19429+P45379+P63316); assay: Fluorescence-based biochemical high throughput dose response assay for activators of the calcium sensitivity of cardiac Regulated Thin Filaments (RTF). [Related pubchem assays (depositor defined):AID493008, AID493018, AID504382, AID504383]; assay type: protein-complex assay

IC50 [1]: > 100 µM (inactive)
Compound: NS(=O)(=O)c1ccc(NC(=O)N2CCN(Cc3ccccc3)CC2)cc1

EC50 [2]: > 5.53 µM (inactive)
EC50 [3]: > 49.8 µM (not active)
Compound: CCCN(CCC)c1ccc(/C=C/c2ccc3cc(OCC)ccc3n2)cc1

EC50 [4]: > 32 µM (inactive)
EC50 [5]: > 32 µM (inactive)
IC50 (Mu-type opioid receptor [6]): > 32 µM (inactive)
IC50 [7]: > 32 µM (inactive)
EC50 (Mu-type opioid receptor [8]): > 32 µM (inactive)
IC50 [9]: > 32 µM (inactive)
EC50 [10]: > 10 µM (inactive)
Compound: COc1ccc(C)cc1NC(=O)CSc1nnc(-c2ccccn2)n1Cc1ccco1

EC50 [11]: > 100 µM (inactive)
EC50 [12]: 12.8 µM (active)
EC50 [13]: 12.1 µM (active)
EC50 [14]: 25.4 µM (active)
IC50 [15]: 54.3 µM (active)
Compound: Cc1n[nH]c(S/C(=C/c2ccc(-c3ccc(Cl)cc3)o2)C(=O)O)n1

Compound: CCNc1sc(C(=O)c2cccs2)c(N)c1-c1nc2ccccc2s1
IC50 [16]: 63.2 µM (inactive)
IC50 [17]: > 100 µM (inactive)

IC50 (Phosphomannomutase 2): > 100 µM (inactive)
IC50 [18]: 23.6 µM (active)
Compound: Clc1nss/c1=N\c1ccc2ncccc2c1

Compound: COc1ccccc1-c1nnc(SCC(=O)NCc2c(C)c(Cl)cc(C(C)C)c2O)o1
IC50 [19]: > 100 µM (inactive)
EC50 [20]: 10.1 µM (active)
EC50 [21]: 12 µM (active)
IC50 [22]: 15.8 µM (not active)
IC50 [23]: > 100 µM (not active)

EC50 [24]: 11.5 µM (active)
EC50 (Troponin, cardiac muscle): 2.18 µM (active)
Compound: Cc1ccc[n+](-c2[n-]c(=O)sc2C=O)c1
